Assay results: patent publication US20240092835A1, “NOVEL PEPTIDES CAPABLE OF ALTERING NK CELL ACTIVITY” (Massachusetts Institute of Technology, priority 2022, published 2024)
Where no end group is shown, it is not given here.

Assays:
NKG2A−/NKG2C− NK cells = assay: NK cell activation markers in control NKG2A-/NKG2C- NK cells incubated with peptide and K562 expressing HLA-E; format: cell-based, human
Procedure, shortened: (§1)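 Human myelogenous leukemia K562 cells displaying HLA-E carry the test peptides (human or HCMV origin) and are presented to NK cells; surface activation markers are scored by percent positive cells.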

NKG2A−/NKG2C+ NK cells = assay: NK cell activation markers in NKG2A-/NKG2C+ NK cells incubated with peptide and K562 expressing HLA-E (activation); format: cell-based, human; settings: for effect on NKG2A−/NKG2C+ NK cell activation (in words): K562 expressing HLA-E, CD107a, IFNG, TNF, CCL3; for percentage of CCL3+ NK cells / percentage of CD107+ NK cells / percentage of IFNG+ NK cells / percentage of TNF+ NK cells: NKG2A-/NKG2C+ NK cells, K562/HLA-E
Procedure, shortened: as §1

QMPSRSLLF [human1, QMPSRSLLF]
percentage CCL3+ NK cells (NKG2A−/NKG2C− NK cells; Trial 1): 37% | percentage CD107+ NK cells (NKG2A−/NKG2C− NK cells; Trial 1): 25.1% | percentage TNF+ NK cells (NKG2A−/NKG2C− NK cells; Trial 1): 4.84% | percentage of IFNG+ NK cells (NKG2A−/NKG2C− NK cells; Trial 1): 16.2% | percentage CCL3+ NK cells (NKG2A−/NKG2C− NK cells; Trial 2): 59.6% | percentage CD107+ NK cells (NKG2A−/NKG2C− NK cells; Trial 2): 37.6% | percentage TNF+ NK cells (NKG2A−/NKG2C− NK cells; Trial 2): 11.3% | percentage of IFNG+ NK cells (NKG2A−/NKG2C− NK cells; Trial 2): 29.3% | percentage CCL3+ NK cells (NKG2A−/NKG2C− NK cells; Trial 3): 51.3% | percentage CD107+ NK cells (NKG2A−/NKG2C− NK cells; Trial 3): 47.2% | percentage TNF+ NK cells (NKG2A−/NKG2C− NK cells; Trial 3): 19% | percentage of IFNG+ NK cells (NKG2A−/NKG2C− NK cells; Trial 3): 38.5% | percentage CCL3+ NK cells (NKG2A−/NKG2C− NK cells; Trial 4): 33.1% | percentage CD107+ NK cells (NKG2A−/NKG2C− NK cells; Trial 4): 29.5% | percentage TNF+ NK cells (NKG2A−/NKG2C− NK cells; Trial 4): 9.26% | percentage of IFNG+ NK cells (NKG2A−/NKG2C− NK cells; Trial 4): 18.6% | percentage CCL3+ NK cells (NKG2A−/NKG2C− NK cells; Trial 5): 26% | percentage CD107+ NK cells (NKG2A−/NKG2C− NK cells; Trial 5): 19.8% | percentage TNF+ NK cells (NKG2A−/NKG2C− NK cells; Trial 5): 6.91% | percentage of IFNG+ NK cells (NKG2A−/NKG2C− NK cells; Trial 5): 15.9% | percentage CCL3+ NK cells (NKG2A−/NKG2C− NK cells; Trial 6): 24.1% | percentage CD107+ NK cells (NKG2A−/NKG2C− NK cells; Trial 6): 18.8% | percentage TNF+ NK cells (NKG2A−/NKG2C− NK cells; Trial 6): 3.78% | percentage of IFNG+ NK cells (NKG2A−/NKG2C− NK cells; Trial 6): 7.82% | effect on NKG2A−/NKG2C+ NK cell activation (in words) (NKG2A−/NKG2C+ NK cells; listed as SEQ ID NO. 7): strong activating effects | effect on NKG2A−/NKG2C+ NK cell activation (in words) (NKG2A−/NKG2C+ NK cells; listed as h1): strong inhibitory and activating effects | percentage of CCL3+ NK cells (NKG2A−/NKG2C+ NK cells; Trial 1): 78.3% | percentage of CD107+ NK cells (NKG2A−/NKG2C+ NK cells; Trial 1): 74.8% | percentage of IFNG+ NK cells (NKG2A−/NKG2C+ NK cells; Trial 1): 62.6% | percentage of TNF+ NK cells (NKG2A−/NKG2C+ NK cells; Trial 1): 51.1% | percentage of CCL3+ NK cells (NKG2A−/NKG2C+ NK cells; Trial 2): 91.5% | percentage of CD107+ NK cells (NKG2A−/NKG2C+ NK cells; Trial 2): 87.4% | percentage of IFNG+ NK cells (NKG2A−/NKG2C+ NK cells; Trial 2): 84.1% | percentage of TNF+ NK cells (NKG2A−/NKG2C+ NK cells; Trial 2): 75.2% | percentage of CCL3+ NK cells (NKG2A−/NKG2C+ NK cells; Trial 3): 86.6% | percentage of CD107+ NK cells (NKG2A−/NKG2C+ NK cells; Trial 3): 87% | percentage of IFNG+ NK cells (NKG2A−/NKG2C+ NK cells; Trial 3): 80.5% | percentage of TNF+ NK cells (NKG2A−/NKG2C+ NK cells; Trial 3): 72.9% | percentage of CCL3+ NK cells (NKG2A−/NKG2C+ NK cells; Trial 4): 68.1% | percentage of CD107+ NK cells (NKG2A−/NKG2C+ NK cells; Trial 4): 68.2% | percentage of IFNG+ NK cells (NKG2A−/NKG2C+ NK cells; Trial 4): 58.1% | percentage of TNF+ NK cells (NKG2A−/NKG2C+ NK cells; Trial 4): 51.6% | percentage of CCL3+ NK cells (NKG2A−/NKG2C+ NK cells; Trial 5): 79.1% | percentage of CD107+ NK cells (NKG2A−/NKG2C+ NK cells; Trial 5): 75.8% | percentage of IFNG+ NK cells (NKG2A−/NKG2C+ NK cells; Trial 5): 66.9% | percentage of TNF+ NK cells (NKG2A−/NKG2C+ NK cells; Trial 5): 64% | percentage of CCL3+ NK cells (NKG2A−/NKG2C+ NK cells; Trial 6): 61.1% | percentage of CD107+ NK cells (NKG2A−/NKG2C+ NK cells; Trial 6): 57.6% | percentage of IFNG+ NK cells (NKG2A−/NKG2C+ NK cells; Trial 6): 46.7% | percentage of TNF+ NK cells (NKG2A−/NKG2C+ NK cells; Trial 6): 38.8%

TAPARTMFL [human13, TAPARTMFL]
percentage CCL3+ NK cells (NKG2A−/NKG2C− NK cells; Trial 1): 37.2% | percentage CD107+ NK cells (NKG2A−/NKG2C− NK cells; Trial 1): 26.3% | percentage TNF+ NK cells (NKG2A−/NKG2C− NK cells; Trial 1): 3.65% | percentage of IFNG+ NK cells (NKG2A−/NKG2C− NK cells; Trial 1): 16.6% | percentage CCL3+ NK cells (NKG2A−/NKG2C− NK cells; Trial 2): 65.4% | percentage CD107+ NK cells (NKG2A−/NKG2C− NK cells; Trial 2): 43% | percentage TNF+ NK cells (NKG2A−/NKG2C− NK cells; Trial 2): 11.9% | percentage of IFNG+ NK cells (NKG2A−/NKG2C− NK cells; Trial 2): 32.5% | percentage CCL3+ NK cells (NKG2A−/NKG2C− NK cells; Trial 3): 56.2% | percentage CD107+ NK cells (NKG2A−/NKG2C− NK cells; Trial 3): 56.4% | percentage TNF+ NK cells (NKG2A−/NKG2C− NK cells; Trial 3): 23.2% | percentage of IFNG+ NK cells (NKG2A−/NKG2C− NK cells; Trial 3): 49.4% | percentage CCL3+ NK cells (NKG2A−/NKG2C− NK cells; Trial 4): 37.7% | percentage CD107+ NK cells (NKG2A−/NKG2C− NK cells; Trial 4): 31.8% | percentage TNF+ NK cells (NKG2A−/NKG2C− NK cells; Trial 4): 12.1% | percentage of IFNG+ NK cells (NKG2A−/NKG2C− NK cells; Trial 4): 22.2% | percentage CCL3+ NK cells (NKG2A−/NKG2C− NK cells; Trial 5): 30.1% | percentage CD107+ NK cells (NKG2A−/NKG2C− NK cells; Trial 5): 22.7% | percentage TNF+ NK cells (NKG2A−/NKG2C− NK cells; Trial 5): 8.01% | percentage of IFNG+ NK cells (NKG2A−/NKG2C− NK cells; Trial 5): 18.9% | percentage CCL3+ NK cells (NKG2A−/NKG2C− NK cells; Trial 6): 27.4% | percentage CD107+ NK cells (NKG2A−/NKG2C− NK cells; Trial 6): 21.1% | percentage TNF+ NK cells (NKG2A−/NKG2C− NK cells; Trial 6): 3.64% | percentage of IFNG+ NK cells (NKG2A−/NKG2C− NK cells; Trial 6): 8.06% | effect on NKG2A−/NKG2C+ NK cell activation (in words) (NKG2A−/NKG2C+ NK cells; listed as SEQ ID NO. 5): activate | effect on NKG2A−/NKG2C+ NK cell activation (in words) (NKG2A−/NKG2C+ NK cells; listed as h13): activated | percentage of CCL3+ NK cells (NKG2A−/NKG2C+ NK cells; Trial 1): 56.9% | percentage of CD107+ NK cells (NKG2A−/NKG2C+ NK cells; Trial 1): 38.3% | percentage of IFNG+ NK cells (NKG2A−/NKG2C+ NK cells; Trial 1): 18.2% | percentage of TNF+ NK cells (NKG2A−/NKG2C+ NK cells; Trial 1): 9.29% | percentage of CCL3+ NK cells (NKG2A−/NKG2C+ NK cells; Trial 2): 74.9% | percentage of CD107+ NK cells (NKG2A−/NKG2C+ NK cells; Trial 2): 57% | percentage of IFNG+ NK cells (NKG2A−/NKG2C+ NK cells; Trial 2): 28.7% | percentage of TNF+ NK cells (NKG2A−/NKG2C+ NK cells; Trial 2): 20.7% | percentage of CCL3+ NK cells (NKG2A−/NKG2C+ NK cells; Trial 3): 72.4% | percentage of CD107+ NK cells (NKG2A−/NKG2C+ NK cells; Trial 3): 71.2% | percentage of IFNG+ NK cells (NKG2A−/NKG2C+ NK cells; Trial 3): 49.2% | percentage of TNF+ NK cells (NKG2A−/NKG2C+ NK cells; Trial 3): 37.9% | percentage of CCL3+ NK cells (NKG2A−/NKG2C+ NK cells; Trial 4): 60.7% | percentage of CD107+ NK cells (NKG2A−/NKG2C+ NK cells; Trial 4): 57.1% | percentage of IFNG+ NK cells (NKG2A−/NKG2C+ NK cells; Trial 4): 40.8% | percentage of TNF+ NK cells (NKG2A−/NKG2C+ NK cells; Trial 4): 33% | percentage of CCL3+ NK cells (NKG2A−/NKG2C+ NK cells; Trial 5): 61.9% | percentage of CD107+ NK cells (NKG2A−/NKG2C+ NK cells; Trial 5): 56.2% | percentage of IFNG+ NK cells (NKG2A−/NKG2C+ NK cells; Trial 5): 34.2% | percentage of TNF+ NK cells (NKG2A−/NKG2C+ NK cells; Trial 5): 27.4% | percentage of CCL3+ NK cells (NKG2A−/NKG2C+ NK cells; Trial 6): 40.7% | percentage of CD107+ NK cells (NKG2A−/NKG2C+ NK cells; Trial 6): 29.1% | percentage of IFNG+ NK cells (NKG2A−/NKG2C+ NK cells; Trial 6): 14.3% | percentage of TNF+ NK cells (NKG2A−/NKG2C+ NK cells; Trial 6): 8.92%
